# From patent US20220411388A1, “SUBSTITUTED IMIDAZOLE CARBOXAMIDES AND THEIR USE IN THE TREATMENT OF MEDICAL DISORDERS” (Bial - R&D Investments, S.A., priority 2019, published 2022)
# pIC50: −log10 of the molar value. Read-outs that look alike come from different tables or passages of the source.
# Key:
# [1] = Compound solubility in water; assay type: physicochemical
# acid ceramidase (hACR) = target: T1, acid ceramidase (hACR) (Homo sapiens, UniProt Q13510); assay: Acid ceramidase inhibition, biochemical fluorescent assay with cell lysates overexpressing acid ceramidase (substrate Rbm14-12); details: cell lysate, 1 hr preincubation at RT, pH 4.5, Rbm14-12 6.3 μM
# T1 construct: expressed in transfected cells
# T1 sequence (Q13510 22-395): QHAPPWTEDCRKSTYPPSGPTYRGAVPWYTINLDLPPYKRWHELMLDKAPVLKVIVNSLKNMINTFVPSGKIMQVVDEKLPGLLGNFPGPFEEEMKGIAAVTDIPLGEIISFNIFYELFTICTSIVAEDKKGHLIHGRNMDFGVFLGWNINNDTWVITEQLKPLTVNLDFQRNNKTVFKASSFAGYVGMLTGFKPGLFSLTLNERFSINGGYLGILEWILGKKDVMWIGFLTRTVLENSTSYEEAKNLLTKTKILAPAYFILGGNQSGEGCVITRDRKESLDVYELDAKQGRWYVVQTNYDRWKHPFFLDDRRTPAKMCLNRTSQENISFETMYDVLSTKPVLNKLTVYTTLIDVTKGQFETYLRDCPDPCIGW
# Description: The ability of exemplary compounds to inhibit acid ceramidase was measured.
# Cell lysates overexpressing acid ceramidase were used as the enzyme source for compound potency determination in a biochemical fluorescent assay. Briefly, compounds were preincubated with 10 μg protein of cell lysates in a dose-response manner for 1 hr at RT in the assay buffer containing 25 mM NaAC and 100 mM NaCl, pH 4.5. […] The samples were incubated with the stopping buffer at RT for 1 hr to allow the fluorescent product to be formed. […] Data were collected and used to determine the IC50 values of compounds by curve fitting to the four-parameter inhibition equation.
Structure (SMILES),solubility [1] [µg/mL],pIC50 (acid ceramidase (hACR); read-out: IC50 hACR),pIC50 (acid ceramidase (hACR); IC50 hACR)
"CC(C)CNC(=O)n1cnc(C(C)(C)C)c1 [Example 87, 4-(tert-Butyl)-N-iso-butyl-1H-imidazole-1-carboxamide]",17,6.00 to 6.70,–
"COc1nc(C(C)(C)C)cn1C(=O)NCCCC(F)(F)F [Example 91, 4-(tert-Butyl)-2-methoxy-N-(4,4,4-trifluorobutyl)-1H-imidazole-1-carboxamide]",22,6.00 to 6.70,–
"COc1ccc(-c2cn(C(=O)NCCC3(C(F)(F)F)CC3)c(OC)n2)cn1 [Example 94, 2-Methoxy-4-(6-methoxypyridin-3-yl)-N-(2-(1-(trifluoromethyl)cyclopropyl)ethyl)-1H-imidazole-1-carboxamide]",6,6.00 to 6.70,–
"COc1nc(C(C)(C)C)cn1C(=O)NCCCC1(C(F)(F)F)CC1 [Example 96, 4-(tert-Butyl)-2-methoxy-N-(3-(1-(trifluoromethyl)cyclopropyl)propyl)-1H-imidazole-1-carboxamide]",12,> 6.70,–
"COc1nc(C(C)(C)C)cn1C(=O)NCC#CC(C)C [Example 98, 4-(tert-Butyl)-2-methoxy-N-(4-methylpent-2-yn-1-yl)-1H-imidazole-1-carboxamide]",5,> 6.70,–
"CCC(C)(C)c1cn(C(=O)NCCC(C)C)c(OC)n1 [Example 100, N-iso-Pentyl-2-methoxy-4-(tert-pentyl)-1H-imidazole-1-carboxamide]",14,–,6.00 to 6.70
"COc1nc(C(C)(C)C)cn1C(=O)NCCCc1ccccc1 [Example 101, 4-(tert-Butyl)-2-methoxy-N-(3-phenylpropyl)-1H-imidazole-1-carboxamide]",10,> 6.70,–
"COc1nc(C(C)(C)C)cn1C(=O)NCCCC(C)C [Example 102, 4-(tert-Butyl)-2-methoxy-N-(4-methylpentyl)-1H-imidazole-1-carboxamide]",10,> 6.70,–
"CC(C)CNC(=O)n1cc(C(C)(C)C)nc1OC(C)C [Example 107, 4-(tert-Butyl)-N-iso-butyl-2-iso-propoxy-1H-imidazole-1-carboxamide]",7,6.00 to 6.70,–
"CC(C)CCNC(=O)n1cc(C(C)(C)C)nc1Oc1ccccc1F [Example 115, 4-tert-Butyl-2-(2-fluorophenoxy)-N-iso-pentyl-1H-imidazole-1-carboxamide]",0.4,6.00 to 6.70,–
"CC(C)CCNC(=O)n1cc(C(C)(C)C)nc1Oc1ccc(F)cc1 [Example 116, 4-tert-Butyl-2-(4-fluorophenoxy)-N-iso-pentyl-1H-imidazole-1-carboxamide]",1,> 6.70,–
"COCCOc1nc(C(C)(C)C)cn1C(=O)NCCC(C)C [Example 117, 4-(tert-Butyl)-N-iso-pentyl-2-(2-methoxyethoxy)-1H-imidazole-1-carboxamide]",10,6.00 to 6.70,–
"CCOc1nccn1C(=O)NCCC(C)C [Example 121, 2-Ethoxy-N-iso-pentyl-1H-imidazole-1-carboxamide]",23,6.00 to 6.70,–
"CC(C)CCNC(=O)n1ccnc1OC(C)C [Example 122, N-iso-Pentyl-2-iso-propoxy-1H-imidazole-1-carboxamide]",21,6.00 to 6.70,–
"COc1nccn1C(=O)NCCCC(C)C [Example 123, 2-Methoxy-N-(4-methylpentyl)-1H-imidazole-1-carboxamide]",16,> 6.70,–

# More lines, main results first:
solubility [1] [µg/mL],pIC50 (acid ceramidase (hACR); read-out: IC50 hACR),Structure (SMILES),pIC50 (acid ceramidase (hACR); IC50 hACR)
25,< 6.00,"COc1nc(C2CCCO2)cn1C(=O)NCCC(C)C (stereo not shown) [Example 84, N-iso-pentyl-2-methoxy-4-(tetrahydrofuran-2-yl)-1H-imidazole-1-carboxamide]",–
28,6.00 to 6.70,"COc1nc(C2CCOC2)cn1C(=O)NCCC(C)C (stereo not shown) [Example 85, N-iso-Pentyl-2-methoxy-4-(tetrahydrofuran-3-yl)-1H-imidazole-1-carboxamide]",–
15,6.00 to 6.70,"COc1nc(C(C)(C)C)cn1C(=O)NCC(C)C [Example 86, 4-(tert-Butyl)-N-iso-butyl-2-methoxy-1H-imidazole-1-carboxamide]",–
17,6.00 to 6.70,"COc1nc(C(C)(C)C)cn1C(=O)NCCC1(C(F)(F)F)CC1 [Example 90, 4-(tert-Butyl)-2-methoxy-N-(2-(1-(trifluoromethyl)cyclopropyl)ethyl)-1H-imidazole-1-carboxamide]",–
12,6.00 to 6.70,"CCOc1nc(C(C)(C)C)cn1C(=O)NCCC1CC1 [Example 92, 4-(tert-Butyl)-N-(2-cyclopropylethyl)-2-ethoxy-1H-imidazole-1-carboxamide]",–
8,6.00 to 6.70,"COc1nc(C(C)(C)C)cn1C(=O)NC1CCCCC1 [Example 93, 4-(tert-Butyl)-N-cyclohexyl-2-methoxy-1H-imidazole-1-carboxamide]",–
12,> 6.70,"COc1nc(C(C)(C)C)cn1C(=O)NCCCC1CC1 [Example 95, 4-(tert-Butyl)-N-(3-cyclopropylpropyl)-2-methoxy-1H-imidazole-1-carboxamide]",–
3,> 6.70,"COc1nc(C(C)(C)C)cn1C(=O)NCCCCC1CC1 [Example 97, 4-(tert-Butyl)-N-(4-cyclopropylbutyl)-2-methoxy-1H-imidazole-1-carboxamide]",–
14,< 6.00,"COc1nc(C(C)(C)C)cn1C(=O)NC1CCCC(F)(F)C1 (stereo not shown) [Example 99, 4-(tert-Butyl)-N-(3,3-difluorocyclohexyl)-2-methoxy-1H-imidazole-1-carboxamide]",–
6,< 6.00,"COc1nc(-c2coc(C(C)(C)C)n2)cn1C(=O)NCCC1CC1 [Example 103, 4-(2-(tert-Butyl)oxazol-4-yl)-N-(2-cyclopropylethyl)-2-methoxy-1H-imidazole-1-carboxamide]",–
28,6.00 to 6.70,"COc1nc(C2(C)CCOCC2)cn1C(=O)NCCC1CC1 [Example 104, N-(2-Cyclopropylethyl)-2-methoxy-4-(4-methyltetrahydro-2H-pyran-4-yl)-1H-imidazole-1-carboxamide]",–
14,> 6.70,"COc1nc(C2CCCC2)cn1C(=O)NCCCOc1ccccc1 [Example 105, 4-Cyclopentyl-2-methoxy-N-(3-phenoxypropyl)-1H-imidazole-1-carboxamide]",–
6,< 6.00,"COc1nc(C2CCCC2)cn1C(=O)NC1CCCCC1 [Example 106, N-Cyclohexyl-4-cyclopentyl-2-methoxy-1H-imidazole-1-carboxamide]",–
32,< 6.00,"COc1nc(C2CCOC2)cn1C(=O)NC1CCCCC1 (stereo not shown) [Example 108, N-Cyclohexyl-2-methoxy-4-(tetrahydrofuran-3-yl)-1H-imidazole-1-carboxamide]",–
13,6.00 to 6.70,"COc1nc(C2CCCCC2)cn1C(=O)NCCC(C)C [Example 109, 4-Cyclohexyl-N-iso-pentyl-2-methoxy-1H-imidazole-1-carboxamide]",–
29,6.00 to 6.70,"COc1nc(C2CCOCC2)cn1C(=O)NCCC(C)C [Example 110, N-iso-Pentyl-2-methoxy-4-(tetrahydro-2H-pyran-4-yl)-1H-imidazole-1-carboxamide]",–
15,6.00 to 6.70,"COc1nc(C2CCC(F)(F)CC2)cn1C(=O)NCCC(C)C [Example 111, 4-(4,4-Difluorocyclohexyl)-N-iso-pentyl-2-methoxy-1H-imidazole-1-carboxamide]",–
12,6.00 to 6.70,"COc1nc(C(C)(C)C)cn1C(=O)NC1CCC(F)(F)CC1 [Example 112, 4-(tert-Butyl)-N-(4,4-difluorocyclohexyl)-2-methoxy-1H-imidazole-1-carboxamide]",–
24,6.00 to 6.70,"COc1nc(C(C)(C)C)cn1C(=O)NC1CC1 [Example 113, 4-(tert-Butyl)-N-cyclopropyl-2-methoxy-1H-imidazole-1-carboxamide]",–
29,6.00 to 6.70,"COc1nc(C(C)(C)C)cn1C(=O)NC1CCOCC1 [Example 114, 4-(tert-Butyl)-2-methoxy-N-(tetrahydro-2H-pyran-4-yl)-1H-imidazole-1-carboxamide]",–
17,> 6.70,"COc1nc(C2CCOC2)cn1C(=O)NCCCc1ccccc1 (stereo not shown) [Example 118, 2-Methoxy-N-(3-phenylpropyl)-4-(tetrahydrofuran-3-yl)-1H-imidazole-1-carboxamide]",–
14,6.00 to 6.70,"COc1nc(C)cn1C(=O)NCCC(C)C [Example 119, N-iso-Pentyl-2-methoxy-4-methyl-1H-imidazole-1-carboxamide]",–
14,< 6.00,"COc1nccn1C(=O)NC1CCCCC1 [Example 120, N-Cyclohexyl-2-methoxy-1H-imidazole-1-carboxamide]",–
